Assay results from ChEMBL document CHEMBL1201862, “PubChem BioAssay data set” (2004).
The source made the active and inactive calls.

Experiments:
[1] = molecular target: Adenosylmethionine-8-amino-7-oxononanoate aminotransferase (Mycobacterium tuberculosis, UniProt P9WQ81); assay: Mycobacterium tuberculosis BioA enzyme inhibitor Measured in Biochemical System Using Plate Reader - 2163-02_Inhibitor_Dose_CherryPick_Activity.; assay type: functional, Mycobacterium tuberculosis UT205
Cytochrome P450 2D6 = Cytochrome P450 2D6 (Homo sapiens, UniProt P10635);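 further: CYP2D6 member of a cytochrome P450 panel assay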
Cytochrome P450 1A2 = molecular target: T1, Cytochrome P450 1A2 (Homo sapiens, UniProt P05177);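 further: PubChem cytochrome P450 panel assay, CYP1A2 panel member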
T1 sequence (P05177 whole entry): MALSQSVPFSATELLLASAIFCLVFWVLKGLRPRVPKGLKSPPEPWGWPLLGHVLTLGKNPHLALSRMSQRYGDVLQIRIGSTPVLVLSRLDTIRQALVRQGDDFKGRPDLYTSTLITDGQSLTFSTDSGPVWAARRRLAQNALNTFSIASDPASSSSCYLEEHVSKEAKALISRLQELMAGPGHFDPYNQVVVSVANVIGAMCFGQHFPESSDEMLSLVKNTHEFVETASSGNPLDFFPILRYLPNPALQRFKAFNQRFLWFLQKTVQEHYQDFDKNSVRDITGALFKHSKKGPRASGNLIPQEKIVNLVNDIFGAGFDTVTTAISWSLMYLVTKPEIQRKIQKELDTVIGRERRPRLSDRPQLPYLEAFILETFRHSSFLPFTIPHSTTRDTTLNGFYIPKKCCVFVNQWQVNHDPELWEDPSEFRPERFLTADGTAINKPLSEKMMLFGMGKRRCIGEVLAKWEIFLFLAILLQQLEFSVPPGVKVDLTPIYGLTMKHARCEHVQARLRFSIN

Protein Wnt-3a = Protein Wnt-3a (Mus musculus, UniProt P27467); assay: antagonism of Wnt3a pathway luciferase reporter – Wnt-LIGHT cells, luminescence, selectivity assay for Gli-SUFU antagonist project, dose response (AID 651570); assay type: functional; details: read-out: IC50_Mean;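 further: Wnt-LIGHT reporter cells stimulated with conditioned medium from Wnt3a-producing cells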
[2] = molecular target: T2, Endoribonuclease toxin MazF (Escherichia coli K-12, UniProt P0AE70); assay: activation of MazEF endoribonuclease cleavage – biochemical, fluorescence, single-stranded RNA substrate, uHTS hits, dose response (AID 588481); assay type: functional
T2 sequence (P0AE70 whole entry): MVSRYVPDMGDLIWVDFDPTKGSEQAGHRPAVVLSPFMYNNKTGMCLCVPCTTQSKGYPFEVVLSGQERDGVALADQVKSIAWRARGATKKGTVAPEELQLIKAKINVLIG

[3] = molecular target: T2, Endoribonuclease toxin MazF; assay: substrate-only fluorescence increase artefacts – biochemical, single-stranded RNase substrate, counter-screen for MazEF activator project, dose response (AID 588502); assay type: functional
[4] = molecular target: T3, Sentrin-specific protease 8 (Homo sapiens, UniProt Q96LD8); assay: inhibition of human SENP8 cleavage activity – biochemical, luminescence, SAR follow-up (AID 504501); assay type: functional
T3 sequence (Q96LD8 whole entry): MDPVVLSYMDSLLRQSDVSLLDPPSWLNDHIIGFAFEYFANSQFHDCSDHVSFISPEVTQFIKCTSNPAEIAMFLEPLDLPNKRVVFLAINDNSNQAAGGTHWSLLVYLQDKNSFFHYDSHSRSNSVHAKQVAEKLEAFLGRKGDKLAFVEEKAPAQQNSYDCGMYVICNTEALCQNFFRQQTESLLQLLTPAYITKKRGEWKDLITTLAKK

Caspase-3 = molecular target: T4, Caspase-3 (Homo sapiens, UniProt P42574); assay: SAR Analysis of small molecule inhibitors of Sentrin-specific proteases (SENPs) using a Caspase-3 Selectivity assay. [Related pubchem assays (depositor defined):AID2540, AID2599, AID434973, AID489001]; assay type: functional
T4 sequence (P42574 whole entry): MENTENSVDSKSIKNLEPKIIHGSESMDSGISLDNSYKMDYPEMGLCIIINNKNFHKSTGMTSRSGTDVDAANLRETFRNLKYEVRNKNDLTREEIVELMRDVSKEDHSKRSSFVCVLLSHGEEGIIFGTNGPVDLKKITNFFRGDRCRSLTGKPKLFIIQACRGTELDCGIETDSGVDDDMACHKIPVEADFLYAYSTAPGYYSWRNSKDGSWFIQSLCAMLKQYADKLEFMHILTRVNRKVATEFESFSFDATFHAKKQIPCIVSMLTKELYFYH

[5] = molecular target: T5, Sentrin-specific protease 6 (Homo sapiens, UniProt Q9GZR1); assay: SAR Analysis of small molecule inhibitors of Sentrin-specific protease 6 (SENP6) using a Luminescent assay. [Related pubchem assays (depositor defined):AID2582, AID2599]; assay type: functional
T5 sequence (Q9GZR1 whole entry): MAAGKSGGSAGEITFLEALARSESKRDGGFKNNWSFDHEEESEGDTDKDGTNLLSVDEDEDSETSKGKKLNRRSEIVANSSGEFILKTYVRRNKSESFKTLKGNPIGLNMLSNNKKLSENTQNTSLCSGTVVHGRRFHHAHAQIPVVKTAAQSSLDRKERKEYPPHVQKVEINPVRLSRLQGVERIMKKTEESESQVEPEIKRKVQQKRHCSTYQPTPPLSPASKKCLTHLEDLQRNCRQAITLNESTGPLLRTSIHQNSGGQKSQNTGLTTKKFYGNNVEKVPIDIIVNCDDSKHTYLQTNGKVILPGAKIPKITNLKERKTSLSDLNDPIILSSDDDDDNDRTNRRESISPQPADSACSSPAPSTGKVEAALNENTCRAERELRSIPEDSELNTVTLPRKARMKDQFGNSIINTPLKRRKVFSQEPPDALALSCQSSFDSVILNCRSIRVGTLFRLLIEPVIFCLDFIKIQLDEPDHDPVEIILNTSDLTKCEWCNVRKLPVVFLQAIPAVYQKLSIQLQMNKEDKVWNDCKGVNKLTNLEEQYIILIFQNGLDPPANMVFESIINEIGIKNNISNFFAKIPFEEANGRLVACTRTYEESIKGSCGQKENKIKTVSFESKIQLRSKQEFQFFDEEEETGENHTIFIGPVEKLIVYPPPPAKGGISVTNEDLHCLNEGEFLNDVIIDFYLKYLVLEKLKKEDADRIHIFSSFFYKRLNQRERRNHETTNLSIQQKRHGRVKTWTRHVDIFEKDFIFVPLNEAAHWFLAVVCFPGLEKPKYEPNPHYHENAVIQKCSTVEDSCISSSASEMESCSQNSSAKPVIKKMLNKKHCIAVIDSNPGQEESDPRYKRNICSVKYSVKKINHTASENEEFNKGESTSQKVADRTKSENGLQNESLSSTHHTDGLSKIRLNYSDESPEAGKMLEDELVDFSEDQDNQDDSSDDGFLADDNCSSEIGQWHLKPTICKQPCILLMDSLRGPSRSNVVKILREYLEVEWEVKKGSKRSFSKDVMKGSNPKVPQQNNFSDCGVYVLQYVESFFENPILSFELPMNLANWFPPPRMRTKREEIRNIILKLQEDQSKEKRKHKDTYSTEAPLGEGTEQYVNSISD

[6] = molecular target: T6, Sentrin-specific protease 7 (Homo sapiens, UniProt Q9BQF6); assay: inhibition of human SENP7 cleavage activity – biochemical, luminescence, SAR follow-up (AID 504497); assay type: functional
T6 sequence (Q9BQF6 whole entry): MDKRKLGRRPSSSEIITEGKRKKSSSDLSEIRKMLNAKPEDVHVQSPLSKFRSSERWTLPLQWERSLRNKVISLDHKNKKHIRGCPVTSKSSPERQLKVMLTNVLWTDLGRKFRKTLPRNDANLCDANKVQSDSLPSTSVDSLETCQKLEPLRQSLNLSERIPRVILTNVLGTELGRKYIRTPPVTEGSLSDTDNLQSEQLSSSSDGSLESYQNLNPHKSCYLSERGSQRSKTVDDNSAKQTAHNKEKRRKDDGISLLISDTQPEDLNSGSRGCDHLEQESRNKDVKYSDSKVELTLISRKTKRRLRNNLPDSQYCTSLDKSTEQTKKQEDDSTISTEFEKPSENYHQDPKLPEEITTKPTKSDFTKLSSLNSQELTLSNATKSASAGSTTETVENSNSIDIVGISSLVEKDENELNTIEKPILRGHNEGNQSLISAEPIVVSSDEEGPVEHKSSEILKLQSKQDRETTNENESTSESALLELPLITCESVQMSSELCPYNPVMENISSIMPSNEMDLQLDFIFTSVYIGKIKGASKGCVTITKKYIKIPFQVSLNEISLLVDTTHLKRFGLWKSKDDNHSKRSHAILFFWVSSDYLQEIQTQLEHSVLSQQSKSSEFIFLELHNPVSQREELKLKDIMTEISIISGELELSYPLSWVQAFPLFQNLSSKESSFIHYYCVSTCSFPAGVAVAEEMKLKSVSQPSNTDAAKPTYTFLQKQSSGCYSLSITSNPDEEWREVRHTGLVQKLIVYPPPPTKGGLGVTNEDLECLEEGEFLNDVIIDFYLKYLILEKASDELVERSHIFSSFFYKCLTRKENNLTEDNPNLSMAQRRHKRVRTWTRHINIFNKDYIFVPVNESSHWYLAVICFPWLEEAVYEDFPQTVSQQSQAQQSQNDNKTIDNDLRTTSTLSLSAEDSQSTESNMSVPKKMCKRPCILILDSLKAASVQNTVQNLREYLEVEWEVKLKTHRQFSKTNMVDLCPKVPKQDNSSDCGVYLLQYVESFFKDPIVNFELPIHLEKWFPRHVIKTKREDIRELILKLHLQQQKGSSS

[7] = molecular target: Serine/threonine-protein kinase pim-1 (Homo sapiens, UniProt P11309); assay type: functional
[8] = molecular target: Cell division cycle 7-related protein kinase (Homo sapiens, UniProt O00311); assay type: functional;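 further: value obtained from a kinome-wide kinase panel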
[9] = molecular target: Homeodomain-interacting protein kinase 2 (Homo sapiens, UniProt Q9H2X6); assay type: functional;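 further: measured within a kinome-wide kinase profiling panel, HIPK2 being one panel member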
[10] = molecular target: T7, Interleukin-1 receptor-associated kinase 4 (Homo sapiens, UniProt Q9NWZ3); assay type: functional
T7 sequence (Q9NWZ3 whole entry): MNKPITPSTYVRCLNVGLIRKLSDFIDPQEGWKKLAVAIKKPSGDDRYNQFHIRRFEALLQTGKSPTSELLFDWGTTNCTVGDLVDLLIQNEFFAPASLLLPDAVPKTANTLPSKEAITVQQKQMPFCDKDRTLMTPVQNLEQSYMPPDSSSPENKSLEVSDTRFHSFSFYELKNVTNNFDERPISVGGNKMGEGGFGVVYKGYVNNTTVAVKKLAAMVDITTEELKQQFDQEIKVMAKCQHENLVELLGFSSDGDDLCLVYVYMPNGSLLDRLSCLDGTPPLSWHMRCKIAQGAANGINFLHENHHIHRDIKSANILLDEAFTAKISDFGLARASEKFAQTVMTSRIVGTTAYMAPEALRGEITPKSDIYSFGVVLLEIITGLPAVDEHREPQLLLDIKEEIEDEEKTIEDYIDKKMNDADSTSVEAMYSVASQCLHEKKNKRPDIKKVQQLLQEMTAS

[11] = molecular target: Glycogen synthase kinase-3 beta (Homo sapiens, UniProt P49841); assay type: functional;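 further: value comes from a broad kinome profiling panel, with GSK3B as the panel member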
[12] = molecular target: cAMP-dependent protein kinase catalytic subunit alpha (Homo sapiens, UniProt P17612); assay type: functional
[13] = molecular target: Dual specificity protein kinase CLK4 (Homo sapiens, UniProt Q9HAZ1); assay type: functional
Dual specificity protein kinase CLK4, sequence (Q9HAZ1 whole entry): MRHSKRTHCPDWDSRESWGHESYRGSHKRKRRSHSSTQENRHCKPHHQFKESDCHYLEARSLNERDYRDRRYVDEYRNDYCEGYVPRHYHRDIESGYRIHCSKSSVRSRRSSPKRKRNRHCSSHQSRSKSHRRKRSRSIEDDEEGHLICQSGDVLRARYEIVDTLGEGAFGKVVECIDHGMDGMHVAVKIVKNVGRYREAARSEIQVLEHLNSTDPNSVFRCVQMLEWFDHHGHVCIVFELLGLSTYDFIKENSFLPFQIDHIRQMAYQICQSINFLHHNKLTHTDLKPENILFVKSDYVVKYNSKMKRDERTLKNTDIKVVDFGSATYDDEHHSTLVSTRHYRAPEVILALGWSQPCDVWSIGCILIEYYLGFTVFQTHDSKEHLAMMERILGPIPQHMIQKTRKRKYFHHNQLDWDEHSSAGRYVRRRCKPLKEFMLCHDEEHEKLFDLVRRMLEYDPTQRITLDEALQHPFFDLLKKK

Adenosylmethionine-8-amino-7-oxononanoate aminotransferase, sequence (P9WQ81 whole entry): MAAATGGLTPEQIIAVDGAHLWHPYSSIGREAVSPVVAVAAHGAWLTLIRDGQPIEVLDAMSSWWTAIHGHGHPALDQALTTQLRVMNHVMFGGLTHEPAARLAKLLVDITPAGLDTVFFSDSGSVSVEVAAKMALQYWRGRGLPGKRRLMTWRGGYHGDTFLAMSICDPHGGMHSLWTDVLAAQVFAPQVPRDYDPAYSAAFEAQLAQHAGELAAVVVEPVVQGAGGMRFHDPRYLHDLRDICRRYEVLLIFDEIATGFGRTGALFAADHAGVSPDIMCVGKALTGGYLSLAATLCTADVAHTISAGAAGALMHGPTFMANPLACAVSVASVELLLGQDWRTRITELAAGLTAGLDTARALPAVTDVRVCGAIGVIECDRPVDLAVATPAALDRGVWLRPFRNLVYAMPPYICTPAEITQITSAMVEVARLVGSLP
Protein Wnt-3a, sequence (P27467 whole entry): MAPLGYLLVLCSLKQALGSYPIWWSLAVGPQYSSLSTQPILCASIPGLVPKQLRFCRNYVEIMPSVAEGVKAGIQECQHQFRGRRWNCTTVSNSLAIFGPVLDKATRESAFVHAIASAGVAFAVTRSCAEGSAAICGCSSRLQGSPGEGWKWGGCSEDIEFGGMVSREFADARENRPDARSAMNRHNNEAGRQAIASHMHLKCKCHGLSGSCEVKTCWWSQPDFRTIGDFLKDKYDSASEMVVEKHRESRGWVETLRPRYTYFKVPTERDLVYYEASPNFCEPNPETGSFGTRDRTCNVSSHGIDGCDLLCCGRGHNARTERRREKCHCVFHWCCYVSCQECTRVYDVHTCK
Homeodomain-interacting protein kinase 2, sequence (Q9H2X6 whole entry): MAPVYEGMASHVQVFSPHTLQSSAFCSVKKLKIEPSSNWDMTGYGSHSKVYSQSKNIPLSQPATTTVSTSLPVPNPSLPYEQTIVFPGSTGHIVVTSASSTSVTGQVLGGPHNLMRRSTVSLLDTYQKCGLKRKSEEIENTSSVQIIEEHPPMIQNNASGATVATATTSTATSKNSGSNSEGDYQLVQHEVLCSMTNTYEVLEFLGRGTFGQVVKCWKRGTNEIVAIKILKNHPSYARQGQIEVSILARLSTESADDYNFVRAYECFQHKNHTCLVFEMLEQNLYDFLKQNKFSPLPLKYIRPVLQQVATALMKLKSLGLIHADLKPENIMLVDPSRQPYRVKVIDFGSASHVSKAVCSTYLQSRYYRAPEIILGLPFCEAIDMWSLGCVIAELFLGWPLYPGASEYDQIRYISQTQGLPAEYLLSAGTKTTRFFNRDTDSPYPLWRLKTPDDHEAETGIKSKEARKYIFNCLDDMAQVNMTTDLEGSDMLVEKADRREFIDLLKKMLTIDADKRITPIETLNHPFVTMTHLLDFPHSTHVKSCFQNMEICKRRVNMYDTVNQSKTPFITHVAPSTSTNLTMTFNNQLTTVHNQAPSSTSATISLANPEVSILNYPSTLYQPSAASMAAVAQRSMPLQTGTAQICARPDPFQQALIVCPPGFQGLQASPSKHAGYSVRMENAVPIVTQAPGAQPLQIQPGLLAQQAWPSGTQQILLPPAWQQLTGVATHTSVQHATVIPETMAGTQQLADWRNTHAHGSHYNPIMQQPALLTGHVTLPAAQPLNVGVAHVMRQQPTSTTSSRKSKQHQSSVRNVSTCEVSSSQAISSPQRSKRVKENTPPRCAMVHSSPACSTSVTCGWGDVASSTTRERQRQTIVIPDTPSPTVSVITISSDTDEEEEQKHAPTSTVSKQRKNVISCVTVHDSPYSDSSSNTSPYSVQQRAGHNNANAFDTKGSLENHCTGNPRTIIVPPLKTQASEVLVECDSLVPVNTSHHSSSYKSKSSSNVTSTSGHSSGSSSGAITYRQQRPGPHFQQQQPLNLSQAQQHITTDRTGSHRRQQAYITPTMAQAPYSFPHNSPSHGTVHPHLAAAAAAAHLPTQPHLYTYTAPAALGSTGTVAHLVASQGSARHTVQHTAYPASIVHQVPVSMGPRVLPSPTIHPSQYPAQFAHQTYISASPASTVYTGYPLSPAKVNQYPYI
Serine/threonine-protein kinase pim-1, sequence (P11309 whole entry): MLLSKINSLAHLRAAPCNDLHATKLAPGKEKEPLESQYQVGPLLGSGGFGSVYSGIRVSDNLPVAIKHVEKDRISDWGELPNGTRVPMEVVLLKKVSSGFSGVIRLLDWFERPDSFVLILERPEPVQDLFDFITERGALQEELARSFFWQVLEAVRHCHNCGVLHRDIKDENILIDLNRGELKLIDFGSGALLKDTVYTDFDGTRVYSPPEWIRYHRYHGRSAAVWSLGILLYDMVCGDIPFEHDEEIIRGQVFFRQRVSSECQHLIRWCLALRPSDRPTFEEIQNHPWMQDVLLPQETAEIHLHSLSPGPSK
Cell division cycle 7-related protein kinase, sequence (O00311 whole entry): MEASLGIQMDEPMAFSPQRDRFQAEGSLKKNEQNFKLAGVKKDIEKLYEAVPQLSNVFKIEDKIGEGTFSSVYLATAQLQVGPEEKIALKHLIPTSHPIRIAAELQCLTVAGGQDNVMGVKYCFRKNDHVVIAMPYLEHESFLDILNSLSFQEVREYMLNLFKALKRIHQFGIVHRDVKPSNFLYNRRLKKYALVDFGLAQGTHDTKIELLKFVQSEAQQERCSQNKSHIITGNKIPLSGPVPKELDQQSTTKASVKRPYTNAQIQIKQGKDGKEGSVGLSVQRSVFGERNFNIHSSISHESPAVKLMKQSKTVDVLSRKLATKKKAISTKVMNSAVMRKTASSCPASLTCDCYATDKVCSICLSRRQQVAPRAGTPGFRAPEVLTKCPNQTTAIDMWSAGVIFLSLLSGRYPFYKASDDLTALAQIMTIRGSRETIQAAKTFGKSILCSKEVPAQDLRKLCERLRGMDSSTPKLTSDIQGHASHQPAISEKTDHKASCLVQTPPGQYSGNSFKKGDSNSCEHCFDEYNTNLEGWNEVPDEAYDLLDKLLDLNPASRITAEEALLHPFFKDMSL
Cytochrome P450 2D6, sequence (P10635 whole entry): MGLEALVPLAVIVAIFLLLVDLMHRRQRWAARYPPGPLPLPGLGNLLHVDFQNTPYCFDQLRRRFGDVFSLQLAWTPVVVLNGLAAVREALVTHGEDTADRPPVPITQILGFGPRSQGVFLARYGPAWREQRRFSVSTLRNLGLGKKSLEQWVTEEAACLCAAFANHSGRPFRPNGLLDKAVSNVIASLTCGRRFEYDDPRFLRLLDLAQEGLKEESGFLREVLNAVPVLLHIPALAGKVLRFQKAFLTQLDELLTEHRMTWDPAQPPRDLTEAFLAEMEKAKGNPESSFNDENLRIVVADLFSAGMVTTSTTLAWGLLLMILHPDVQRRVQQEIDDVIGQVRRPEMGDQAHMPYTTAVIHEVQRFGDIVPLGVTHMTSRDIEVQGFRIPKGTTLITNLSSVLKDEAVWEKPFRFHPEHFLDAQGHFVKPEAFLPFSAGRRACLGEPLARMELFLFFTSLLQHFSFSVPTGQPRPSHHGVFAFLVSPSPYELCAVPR
Glycogen synthase kinase-3 beta, sequence (P49841 whole entry): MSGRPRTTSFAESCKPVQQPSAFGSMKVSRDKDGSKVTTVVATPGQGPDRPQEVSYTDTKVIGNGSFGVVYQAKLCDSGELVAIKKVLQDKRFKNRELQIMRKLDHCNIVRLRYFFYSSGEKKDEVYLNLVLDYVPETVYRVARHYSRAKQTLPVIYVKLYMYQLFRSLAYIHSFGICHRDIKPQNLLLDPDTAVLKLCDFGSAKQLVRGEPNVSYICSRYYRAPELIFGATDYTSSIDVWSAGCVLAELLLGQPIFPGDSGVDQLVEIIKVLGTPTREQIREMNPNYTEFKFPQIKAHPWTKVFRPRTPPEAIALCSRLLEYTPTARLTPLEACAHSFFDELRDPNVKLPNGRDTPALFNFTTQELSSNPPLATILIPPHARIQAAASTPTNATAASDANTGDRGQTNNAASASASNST

C=CCn1c(COc2ccccc2F)nnc1SCCN1C(=O)c2ccccc2C1=O
AC50 [1]: 7.95 µM (active)

Cc1nc2nc(SCC(=O)NCc3ccco3)nn2c(C)c1Cc1c(F)cccc1Cl
AC50 [1]: 1.38 µM (active)
AC50 (Cytochrome P450 2D6): 28.2 µM (inconclusive)
AC50 (Cytochrome P450 1A2): 20 µM (inconclusive)

CCN(CC)S(=O)(=O)c1ccc(C)c(NC(=S)N2CCN(Cc3ccc4c(c3)OCO4)CC2)c1
IC50 (Protein Wnt-3a): 2.35 µM (active)

CCCn1c(SCC(=O)Nc2nc(-c3ccc(OC)cc3)cs2)nc2c1c(=O)n(C)c(=O)n2C
EC50 [2]: > 99 µM (inactive)
EC50 [3]: > 99 µM (inactive)
IC50 (Protein Wnt-3a): 1.32 µM (active)

O=C(Nc1ccc(-c2nc3cc(Cl)ccc3o2)cc1)c1ccccc1
IC50 [4]: > 99 µM (inactive)
IC50 (Caspase-3): > 99 µM (inactive)
IC50 [5]: > 99 µM (inactive)
IC50 [6]: > 99 µM (inactive)

Clc1ccc(N/N=C/c2cn(Cc3ccccc3)c3ccccc23)cc1
IC50 [4]: > 99 µM (inactive)
IC50 (Caspase-3): > 99 µM (inactive)
IC50 [5]: > 99 µM (inactive)
IC50 [6]: > 99 µM (inactive)

O=C(Nc1ccc(Oc2ccccc2)cc1)c1ccc2c(c1)OCO2
IC50 [4]: 2.2 µM (active)
IC50 (Caspase-3): 1.99 µM (active)
IC50 [5]: 1.55 µM (active)
IC50 [6]: 1.06 µM (active)

NC(=O)c1ccc(-c2ccnc(N)n2)cc1N1CCCCC1
Ki [7]: > 10 µM (inactive)
Ki [8]: 0.00794 µM (active)
Ki [9]: > 3.16 µM (inactive)
Ki [10]: 5.01 µM (active)
Ki [11]: 1 µM (active)
Ki [12]: > 7.94 µM (inactive)
Ki [13]: 0.00316 µM (active)
